Laboratory results as given in patent US6900216B2, “Dihydroimidazo[2,1-b]thiazole and dihydro-5h-thiazolo[3,2-A]pyrimidines as antidepressant agents” (Knoll GmbH, priority 2000, dated 2005).

Tests used:
[1] = target: T1, noradrenaline (NA) reuptake sites (Rattus norvegicus, UniProt Q63380); assay: NA uptake: displacement of [3H]nisoxetine from noradrenaline reuptake sites, rat frontal cortical membranes; assay type: binding; conditions: for Ki: [3H]nisoxetine 0.6 nM, rat frontal cortical membranes, fit to data from three experiments; for inhibition at 1 µM: read-out: NA uptake % displacement at 10^−6 M
T1 construct: Frontal cortical tissue from the brains of male Charles River rats; from tissue; host or cells: rat frontal cortical membranes
Experimental: Frontal cortical tissue from the brains of male Charles River rats weighing 150-250 g was homogenised in ice-cold 50 mM Tris-HCl, pH 7.4 (at 25° C.) containing 120 mM sodium chloride and 5 mM potassium chloride (Tris buffer; 1:60 w/v) using a Kinematic polytron (speed setting 6 for 10 seconds) and centrifuged at 40,000 g for 10 minutes. The supernatant was discarded and the pellet rehomogenised in Tris buffer, 1:60 w/v, and centrifuged at 40,000 g for 10 minutes. This step was repeated twice more so that, in total, the brain tissue was homogenised and centrifuged four times. The final pellet was resuspended in 50 mM Tris-HCl, pH 7.4 containing 300 mM sodium chloride and 5 mM potassium chloride (equivalent to 18.75 mg wet weight of tissue/ml) and used immediately in the binding assay. All centrifugations were performed at 4° C.
Membranes (400 μl; equivalent to 7.5 mg wet weight of tissue/tube) were incubated with 50 μl [^3H]nisoxetine at a single concentration of 0.6 nM and 50 μl of distilled water (total binding) or 50 μl^− of test compound (at a single concentration 10^−6M or at 10 concentrations ranging from 10^−11-10^−3 M) or 50 μl of mazindol (1 μM; non-specific binding) for 4 h at 4° C. Membrane bound radioactivity was recovered by filtration under vacuum through Skatron 11734 filters using a Skatron cell harvester. Filters were rapidly washed with ice-cold 50 mM Tris-HCl, pH 7.4 containing 120 mM sodium chloride and 5 mM potassium chloride (wash setting 9,9,0). The scored filter paper discs were punched out into vials, scintillation fluid added and radioactivity determined by liquid scintillation counting.
(§1) For each of these tests measuring the ability of compounds of Formula I to displace standard ligands from 5-HT1A receptors and 5-hydroxytryptamine (5-HT) and noradrenaline (NA) reuptake sites and muscarinic receptors in vitro, the percentage displacement of specific binding of tritiated ligand by 10^−6 M test compound was calculated in the following way.
(§2) Firstly, specific binding of tritiated ligand in the absence (A) and presence (B) of test compound was determined:
(§3) In the absence of compound: A(dpm)=Total binding (dpm)−Non-specific binding (dpm) In the presence of compound (10^−6 M): B(dpm)=Binding at 10^−6M (dpm)−Non-specific binding (dpm)
(§4) The specific binding of tritiated ligand in the presence (B) of compound was then converted to a percentage of specific binding of tritiated ligand in the absence (A) of compound: % Specific binding at 10^−6 M=B(dpm)/A(dpm)×100
(§5) The percentage displacement of specific binding of tritiated ligand by the test compound (10^−6 M) was then obtained by subtraction of the percentage specific binding in the presence of compound from the percentage specific binding in the absence of compound, which is taken as the maximum binding and so equals 100%:
(§6) % Displacement at 10^−6 M=100−% Specific binding at 10^−6 M.
(§7) In some cases, displacement curves were then produced for compounds which displaced ≧50% of specific binding of the tritiated ligand at 10^−6 M using a range of concentrations of the compound. The Ki was then calculated by simultaneous fitting using equations derived from the Feldman equations by robust non-linear regression to data from three experiments simultaneously (De Lean et al., 1978; Munson and Rodbard, 1980; Feldman, 1992). Munson P J and Rodbard D. Ligand: a versatile computerised approach for characterisation of ligand binding systems. Anal Biochem 1980; 107: 220. Feldman HA. Mathematical theory of complex ligand binding systems at equilibrium: some methods for parameter fitting. Anal Biochem 1992: 48, 317. De Lean A, Munson P J and Rodbard D. Simultaneous analysis of families of sigmoidal curves: application to bioassay, radioligand assay, and physiological dose-response curves. Am J Physiol 1978: 235 (2), E97-E102. […]

muscarinic receptors = assay: Muscarinic binding: displacement of [3H]N-methylscopolamine, rat frontal cortical membranes; conditions: for Muscarinic % displacement at 10^−6 M: 10^−6 M test compound, single determination, [3H]N-methylscopolamine; for Ki: [3H]N-methylscopolamine 0.15 nM, rat frontal cortical membranes
Experimental: Frontal cortical tissue from the brains of male Charles River rats weighing 150-250 g was homogenised in ice-cold 20 mM HEPES buffer, pH 7.5 (measured at 25° C.) containing 100 mM sodium chloride and 10 mM magnesium chloride (1:10 w/v) using a Polytron PT3100 (speed setting 21,700 rpm, 3×5 seconds) and centrifuged at 49,500 g for 30 minutes at 4° C. The supernatant was discarded and the pellet rehomogenised in 20 mM HEPES buffer, pH 7.5 containing 100 mM sodium chloride and 10 mM magnesium chloride (equivalent to 12.5 mg wet weight of tissue/ml). Membranes were stored at −80° C. until required.
Membranes were thawed, diluted 1:10 in ice-cold 20 mM HEPES buffer, pH 7.5 containing 100 mM sodium chloride and 10 mM magnesium chloride and homogenised using a Polytron PT3100 as above. Diluted membranes (200 μl; equivalent to 0.25 mg wet weight of tissue/tube) were incubated with 200 μl of 20 mM HEPES buffer, pH 7.5 containing 100 mM sodium chloride and 10 mM magnesium chloride and 50 μl [^3H]N-methylscopolamine at a single concentration of 0.15 nM and 50 μl distilled water (total binding) or 50 μl test compound (at a single concentration of 10^−6 M or at 10 concentrations ranging from 10^−11-10^−3 M) or 50 μl atropine sulphate (1 μM; non-specific binding) for 30 min at 30° C. Membrane bound radioactivity was recovered by filtration under vacuum through Skatron 11734 filters using a Skatron cell harvester. Filters were rapidly washed with ice-cold 20 mM HEPES buffer, pH 7.5 (wash 1,2 at setting 5,5). The scored filter paper discs were punched out into vials, scintillation fluid added and radioactivity determined by liquid scintillation counting.
as §1, §2, §3, §4, §5, §6, §7

T1 sequence (Q63380 1-617): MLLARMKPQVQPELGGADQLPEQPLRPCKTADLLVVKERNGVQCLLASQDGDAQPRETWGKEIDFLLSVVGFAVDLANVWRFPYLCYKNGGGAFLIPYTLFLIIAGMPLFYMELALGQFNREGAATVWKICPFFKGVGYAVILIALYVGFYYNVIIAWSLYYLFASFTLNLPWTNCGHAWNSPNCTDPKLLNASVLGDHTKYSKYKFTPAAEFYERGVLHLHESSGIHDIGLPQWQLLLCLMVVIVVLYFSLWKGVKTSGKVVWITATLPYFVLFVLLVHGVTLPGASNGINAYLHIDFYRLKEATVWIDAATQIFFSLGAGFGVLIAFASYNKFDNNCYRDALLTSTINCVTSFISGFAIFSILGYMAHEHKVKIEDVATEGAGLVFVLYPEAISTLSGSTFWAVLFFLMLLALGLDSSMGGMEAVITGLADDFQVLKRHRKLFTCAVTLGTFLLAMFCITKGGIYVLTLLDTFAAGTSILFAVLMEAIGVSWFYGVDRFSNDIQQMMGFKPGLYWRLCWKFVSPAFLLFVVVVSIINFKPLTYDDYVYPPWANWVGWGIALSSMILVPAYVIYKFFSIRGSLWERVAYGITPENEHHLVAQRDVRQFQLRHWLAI

Row | Ki [1] [nM] | SMILES | Muscarinic % displacement at 10^−6 M (muscarinic receptors) [%] | melting point [°C] | inhibition at 1 µM [1] [%] | Ki (muscarinic receptors) [nM] | Ki (muscarinic receptors; fumarate) [nM]
1 | 1.2 | Br.CC1=C(c2ccc(F)c3sccc23)N2CCN=C2S1 [Example 38, 3-(7-fluorobenzo[b]thiophen-4-yl)-2-methyl-5,6-dihydroimidazo[2,1-b]thiazole hydrobromide] | 12 | 265 to 267 |  |  | 
2 |  | Br.CC1=C(c2cc3c(C)cccc3s2)N2CCN=C2S1 [Example 16, 2-methyl-3-(4-methylbenzo[b]thiophen-2-yl)-5,6-dihydroimidazo[2,1-b]thiazole hydrobromide] | 0 | 201 to 204 | 83 |  | 
3 | 9.1 | C1=C(c2cccc3sccc23)N2CCN=C2S1.Cl [Example 2, 3-(benzo[b]thiophen-4-yl)-5,6-dihydroimidazo[2,1-b]thiazole hydrochloride] | 20 | 246 to 249 |  |  | 
4 | 1.7 | Br.C=CCC1=C(c2cccc3sccc23)N2CCN=C2S1 [Example 36, 2-allyl-3-(benzo[b]thiophen-4-yl)-5,6-dihydroimidazo[2,1-b]thiazole hydrobromide] |  | 188 to 190 |  | 66 | 
5 | 7.4 | Br.CC1=C(c2ccc3ccsc3c2)N2CCN=C2S1 [Example 37, 3-(benzo[b]thiophen-6-yl)-2-methyl-5,6-dihydroimidazo[2,1-b]thiazole hydrobromide] | 9 | 252 to 254 |  |  | 
6 | 18 | OCC1=C(c2cc3ccccc3s2)N2CCN=C2S1 [Example 15, [3-(benzo[b]thiophen-2-yl)-5,6-dihydroimidazo[2,1-b]thiazol-2-yl]methanol] | −15 | 138 to 140 |  |  | 
7 |  | CC1=C(c2cccc3sc(C)cc23)N2CCN=C2S1.Cl [Example 33, 2-methyl-3-(2-methylbenzo[b]thiophen-4-yl)-5,6-dihydroimidazo[2,1-b]thiazole hydrochloride] | 38 | 271 | 84 |  | 
8 |  | Br.CC1=C(c2cc3cccc(Cl)c3s2)N2CCN=C2S1 [Example 20, 3-(7-chlorobenzo[b]thiophen-2-yl)-2-methyl-5,6-dihydroimidazo[2,1-b]thiazole hydrobromide] | 16 | 294 to 295 | 47 |  | 
9 | 5.3 | CSC1=C(c2cc3ccccc3s2)N2CCN=C2S1 [Example 19, 3-(benzo[b]thiophen-2-yl)-2-(methylthio)-5,6-dihydroimidazo[2,1-b]thiazole] | 2 | 95 to 97 |  |  | 
10 | 25 | OCC1=C(c2cc3c(Cl)cccc3s2)N2CCN=C2S1 [Example 4, [3-(4-chlorobenzo[b]thiophen-2-yl)-5,6-dihydroimidazo[2,1-b]thiazol-2-yl]methanol] | 0 | 170 to 172 |  |  | 
11 |  | Cc1cccc2sc(C3=CSC4=NCCN34)cc12.Cl [Example 14, 3-(4-methylbenzo[b]thiophen-2-yl)-5,6-dihydroimidazo[2,1-b]thiazole hydrochloride] | 9 | 238 to 245 | 87 |  | 
12 | 69.5 | Br.CC1=C(c2cc3c(Cl)cccc3s2)N2CCN=C2S1 [Example 10, 3-(4-chlorobenzo[b]thiophen-2-yl)-2-methyl-5,6-dihydroimidazo[2,1-b]thiazole hydrobromide] | 12 | 246 to 248 |  |  | 
13 |  | Br.Clc1cccc2sc(C3=CSC4=NCCN34)cc12 [Example 1, 3-(4-chlorobenzo[b]thiophen-2-yl)-5,6-dihydroimidazo[2,1-b]thiazole hydrobromide] | 7 | 273 to 274 | 103 |  | 

Row | SMILES | Ki [1] [nM] | Muscarinic % displacement at 10^−6 M (muscarinic receptors) [%] | melting point [°C] | inhibition at 1 µM [1] [%] | Ki (muscarinic receptors) [nM] | Ki (muscarinic receptors; fumarate) [nM]
14 | CCC1=C(c2cccc3sccc23)N2CCN=C2S1.O=C(O)/C=C/C(=O)O [Example 25, 3-(benzo[b]thiophen-4-yl)-2-ethyl-5,6-dihydroimidazo[2,1-b]thiazole fumarate] | 5.4 |  | 171 to 173 |  |  | 249
15 | CSC1=C(c2cccc3sccc23)N2CCN=C2S1.O=C(O)/C=C/C(=O)O [Example 32, 3-(benzo[b]thiophen-4-yl)-2-(methylthio)-5,6-dihydroimidazo[2,1-b]thiazole fumarate] | 3.5 |  | 185 to 187 |  |  | 331
16 | Br.CCC1=C(c2cc3c(Cl)cccc3s2)N2CCN=C2S1 [Example 18, 3-(4-chlorobenzo[b]thiophen-2-yl)-2-ethyl-5,6-dihydroimidazo[2,1-b]thiazole hydrobromide] | 29.5 | 12 | 187 to 189 |  |  | 
17 | CCC1=C(c2ccc3sccc3c2)N2CCN=C2S1.O=C(O)/C=C/C(=O)O [Example 31, 3-(benzo[b]thiophen-5-yl)-2-ethyl-5,6-dihydroimidazo[2,1-b]thiazole fumarate] | 4.3 | 26 | 145 to 150 |  |  | 
18 | Br.CCC1=C(c2cccc3sccc23)N2CCN=C2S1 [Example 13, 3-(benzo[b]thiophen-4-yl)-2-ethyl-5,6-dihydroimidazo[2,1-b]thiazole hydrobromide] | 3.6 |  | 144 to 146 |  | 371 | 
